Here are results for 17 compounds from ChEMBL document CHEMBL1201862, “PubChem BioAssay data set” (2004).

For one test, the target named is Estrogen receptor beta (Homo sapiens, UniProt Q92731).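 Further: recombinant ER-beta bound to coactivator SRC1 peptide in presence of estradiol agonist; inhibitors block coactivator peptide binding and lower the FRET signal.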
For a further test, the target named is Mu-type opioid receptor (Homo sapiens, UniProt P35372). The test is classed as functional, cell-based.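 Further: U2OS cells with beta-arrestin recruitment to OPRM1 by beta-gal complementation.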
Mu-type opioid receptor, sequence (P35372 whole entry): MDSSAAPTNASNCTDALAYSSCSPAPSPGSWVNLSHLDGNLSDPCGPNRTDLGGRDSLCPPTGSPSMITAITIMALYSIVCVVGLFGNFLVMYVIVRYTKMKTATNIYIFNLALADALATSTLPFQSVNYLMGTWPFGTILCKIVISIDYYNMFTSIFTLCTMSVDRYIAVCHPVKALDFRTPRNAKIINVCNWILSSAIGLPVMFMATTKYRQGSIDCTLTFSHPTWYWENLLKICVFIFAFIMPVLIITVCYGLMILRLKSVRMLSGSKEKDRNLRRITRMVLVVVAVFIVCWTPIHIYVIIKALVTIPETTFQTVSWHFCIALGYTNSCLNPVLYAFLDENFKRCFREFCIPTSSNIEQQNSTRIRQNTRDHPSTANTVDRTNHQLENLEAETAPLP
The target of test [1] is 5-hydroxytryptamine receptor 2A (Mus musculus, UniProt P35363). The test is classed as functional, cell-based.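 Further: CHO-K1 cells with tagged receptor and beta-arrestin; agonist potency measured as compound-induced activation of the receptor.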
5-hydroxytryptamine receptor 2A, sequence (P35363 whole entry): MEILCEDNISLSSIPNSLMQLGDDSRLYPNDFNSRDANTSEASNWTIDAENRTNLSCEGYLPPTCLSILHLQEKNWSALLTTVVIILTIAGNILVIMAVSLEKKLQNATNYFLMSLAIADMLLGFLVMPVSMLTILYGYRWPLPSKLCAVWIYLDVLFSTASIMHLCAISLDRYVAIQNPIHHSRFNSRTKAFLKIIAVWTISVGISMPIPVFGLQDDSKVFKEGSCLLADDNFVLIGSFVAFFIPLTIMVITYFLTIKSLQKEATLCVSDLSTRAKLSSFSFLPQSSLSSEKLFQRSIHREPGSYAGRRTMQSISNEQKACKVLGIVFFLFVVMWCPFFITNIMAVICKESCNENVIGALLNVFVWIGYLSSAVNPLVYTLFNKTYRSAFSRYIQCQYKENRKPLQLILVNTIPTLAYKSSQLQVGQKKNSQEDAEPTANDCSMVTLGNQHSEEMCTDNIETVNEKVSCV
The target of another test is Protein Wnt-3a (Mus musculus, UniProt P27467). Nature of the test: antagonism of Wnt3a pathway luciferase reporter – Wnt-LIGHT cells, luminescence, selectivity assay for Gli-SUFU antagonist project, dose response (AID 651570).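 Further: Wnt-LIGHT reporter cells stimulated with conditioned medium from Wnt3a-producing cells.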 The test is classed as functional. The following applies: read-out: IC50_Mean.
Protein Wnt-3a, sequence (P27467 whole entry): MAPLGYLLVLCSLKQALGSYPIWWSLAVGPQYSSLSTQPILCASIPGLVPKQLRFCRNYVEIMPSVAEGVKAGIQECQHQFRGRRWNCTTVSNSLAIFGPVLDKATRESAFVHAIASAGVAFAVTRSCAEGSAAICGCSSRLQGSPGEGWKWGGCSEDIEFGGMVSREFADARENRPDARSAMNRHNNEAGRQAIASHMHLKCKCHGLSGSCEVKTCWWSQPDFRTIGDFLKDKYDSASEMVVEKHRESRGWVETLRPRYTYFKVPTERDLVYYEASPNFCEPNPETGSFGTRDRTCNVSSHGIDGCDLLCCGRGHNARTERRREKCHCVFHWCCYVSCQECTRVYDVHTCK
Another test has as its target T1, Estrogen receptor (Homo sapiens, UniProt P03372).
T1 sequence (P03372 whole entry): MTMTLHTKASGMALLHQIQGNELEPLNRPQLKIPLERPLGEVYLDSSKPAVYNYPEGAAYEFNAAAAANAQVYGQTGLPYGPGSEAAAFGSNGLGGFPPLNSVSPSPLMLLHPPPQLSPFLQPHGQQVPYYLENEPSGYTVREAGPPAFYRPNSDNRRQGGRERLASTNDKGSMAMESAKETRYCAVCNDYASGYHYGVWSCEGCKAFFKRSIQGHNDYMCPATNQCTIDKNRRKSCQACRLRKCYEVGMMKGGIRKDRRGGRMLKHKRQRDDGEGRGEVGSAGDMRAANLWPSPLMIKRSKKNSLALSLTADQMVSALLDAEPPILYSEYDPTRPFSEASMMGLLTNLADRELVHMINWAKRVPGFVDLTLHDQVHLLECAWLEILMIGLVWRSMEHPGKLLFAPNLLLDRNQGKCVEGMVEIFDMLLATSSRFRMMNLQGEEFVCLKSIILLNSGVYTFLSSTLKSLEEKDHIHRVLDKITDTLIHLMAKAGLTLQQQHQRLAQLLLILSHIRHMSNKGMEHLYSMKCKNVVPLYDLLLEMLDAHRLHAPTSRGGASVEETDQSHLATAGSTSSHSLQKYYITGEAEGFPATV

Test [2] in a line: viability loss in THP-1 monocytes – THP-1 cells, cytotoxicity control for Vif-APOBEC3G degradation inhibitor project, dose response (AID 1117359). The test is classed as functional. The following applies: THP-1.
A short description of test [3]: blockers of bursicon-stimulated LGR2 cAMP reporter – cell-based, HEK293, CRE-luciferase reporter, cherry pick, set 2, dose response (AID 743343).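 Further: transfected cells were stimulated with diluted bursicon conditioned medium after compound addition.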 Type of test: functional.
The nature of test [4]: A549 cell cytotoxicity, dose response, cytotoxicity control, plate reader, cherry-pick, antagonist series (AID 743412). Type of test: functional, cell-based.
Test [5] in a line: blockade of melanocortin 4 receptor signaling – cell-based, plate reader, cherry pick, counter-screen for LGR2 antagonist project, dose response (AID 743444).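 Further: transfected HEK 293 cells stimulated with alpha-MSH peptide; potency of inhibitors of the alpha-MSH evoked signal.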 The test is classed as functional. Background: Counterscreens check selectivity or assay interference.
Test [6] concerns the target Induced myeloid leukemia cell differentiation protein Mcl-1 (Homo sapiens, UniProt Q07820). Type of test: functional.
The target in test [7] is T2, Sentrin-specific protease 6 (Homo sapiens, UniProt Q9GZR1).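 Further: Luminescence-based dose-response confirmatory assay of SENP6 inhibition, following up an ultra-high-throughput screen.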
T2 sequence (Q9GZR1 whole entry): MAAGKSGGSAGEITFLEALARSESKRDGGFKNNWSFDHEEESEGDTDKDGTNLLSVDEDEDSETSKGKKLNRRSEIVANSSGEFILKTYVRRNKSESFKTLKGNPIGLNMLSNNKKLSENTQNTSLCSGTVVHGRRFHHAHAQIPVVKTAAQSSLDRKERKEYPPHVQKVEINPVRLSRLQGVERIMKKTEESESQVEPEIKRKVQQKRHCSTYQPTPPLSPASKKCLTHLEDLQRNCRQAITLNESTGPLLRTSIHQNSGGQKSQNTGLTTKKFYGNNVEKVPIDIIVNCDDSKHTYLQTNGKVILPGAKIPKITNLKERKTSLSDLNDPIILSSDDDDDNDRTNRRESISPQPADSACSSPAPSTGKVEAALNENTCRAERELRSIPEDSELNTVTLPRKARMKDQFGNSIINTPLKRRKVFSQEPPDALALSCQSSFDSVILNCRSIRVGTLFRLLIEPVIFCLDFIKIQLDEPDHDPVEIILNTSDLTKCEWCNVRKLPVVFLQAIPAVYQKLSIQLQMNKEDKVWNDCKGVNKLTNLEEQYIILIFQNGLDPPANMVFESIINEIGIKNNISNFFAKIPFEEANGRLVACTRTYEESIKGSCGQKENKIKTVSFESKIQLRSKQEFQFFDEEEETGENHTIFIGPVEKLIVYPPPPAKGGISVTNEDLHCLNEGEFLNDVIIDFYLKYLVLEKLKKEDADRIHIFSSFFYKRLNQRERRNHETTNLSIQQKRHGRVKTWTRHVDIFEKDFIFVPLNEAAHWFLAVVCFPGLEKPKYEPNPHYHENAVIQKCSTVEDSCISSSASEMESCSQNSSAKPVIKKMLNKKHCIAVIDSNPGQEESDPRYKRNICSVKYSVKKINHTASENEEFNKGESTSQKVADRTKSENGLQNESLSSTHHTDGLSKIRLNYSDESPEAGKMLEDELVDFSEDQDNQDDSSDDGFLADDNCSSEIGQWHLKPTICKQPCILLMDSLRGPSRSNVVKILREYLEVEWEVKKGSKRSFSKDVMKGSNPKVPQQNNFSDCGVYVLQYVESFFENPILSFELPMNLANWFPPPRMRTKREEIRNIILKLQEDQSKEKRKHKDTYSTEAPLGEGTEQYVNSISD
Type of test: functional.

For the next test, the target named is T3, Caspase-3 (Homo sapiens, UniProt P42574).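 Further: Dose-response selectivity test against caspase-3 for candidate inhibitors of sentrin-specific proteases (SENPs).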
T3 sequence (P42574 whole entry): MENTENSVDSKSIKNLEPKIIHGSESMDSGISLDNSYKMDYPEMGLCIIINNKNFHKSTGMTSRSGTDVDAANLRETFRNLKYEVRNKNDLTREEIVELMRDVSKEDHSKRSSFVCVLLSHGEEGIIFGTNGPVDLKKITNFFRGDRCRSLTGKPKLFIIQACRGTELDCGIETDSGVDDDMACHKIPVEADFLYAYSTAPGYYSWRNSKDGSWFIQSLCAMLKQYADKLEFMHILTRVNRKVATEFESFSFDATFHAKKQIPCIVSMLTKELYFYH
The test is classed as functional.

The target of another test is T4, Aminopeptidase N (Plasmodium falciparum FcB1/Columbia, UniProt O96935).
T4 sequence (O96935 whole entry): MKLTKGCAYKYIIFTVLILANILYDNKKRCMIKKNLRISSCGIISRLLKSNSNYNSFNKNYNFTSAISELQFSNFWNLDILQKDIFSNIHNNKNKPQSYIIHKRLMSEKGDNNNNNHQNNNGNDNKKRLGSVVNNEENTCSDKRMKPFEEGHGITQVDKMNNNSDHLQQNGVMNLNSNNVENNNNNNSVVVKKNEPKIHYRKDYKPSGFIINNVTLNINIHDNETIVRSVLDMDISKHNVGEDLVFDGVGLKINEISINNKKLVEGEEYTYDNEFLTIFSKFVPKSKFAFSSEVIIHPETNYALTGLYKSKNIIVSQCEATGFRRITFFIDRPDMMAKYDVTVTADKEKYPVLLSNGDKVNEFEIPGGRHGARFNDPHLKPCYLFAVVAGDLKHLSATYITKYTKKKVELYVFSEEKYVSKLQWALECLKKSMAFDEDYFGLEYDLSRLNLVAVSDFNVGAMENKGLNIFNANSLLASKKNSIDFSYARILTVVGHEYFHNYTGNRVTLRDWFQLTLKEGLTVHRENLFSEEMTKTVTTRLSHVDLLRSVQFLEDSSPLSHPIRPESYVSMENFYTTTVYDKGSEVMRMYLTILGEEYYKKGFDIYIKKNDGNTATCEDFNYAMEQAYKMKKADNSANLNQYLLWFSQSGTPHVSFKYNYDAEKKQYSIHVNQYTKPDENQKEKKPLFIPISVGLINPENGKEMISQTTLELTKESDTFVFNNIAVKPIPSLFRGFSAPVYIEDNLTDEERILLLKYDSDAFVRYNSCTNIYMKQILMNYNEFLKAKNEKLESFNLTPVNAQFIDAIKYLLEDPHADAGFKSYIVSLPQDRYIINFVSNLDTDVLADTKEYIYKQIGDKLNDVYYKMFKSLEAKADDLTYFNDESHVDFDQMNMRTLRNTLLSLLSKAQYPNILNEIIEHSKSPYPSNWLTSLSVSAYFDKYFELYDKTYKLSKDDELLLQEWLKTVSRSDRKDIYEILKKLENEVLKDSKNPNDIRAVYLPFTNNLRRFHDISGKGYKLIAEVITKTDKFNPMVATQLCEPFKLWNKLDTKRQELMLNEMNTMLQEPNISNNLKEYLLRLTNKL
Nature of the test: malaria alanyl aminopeptidase activity blockers – biochemical, fluorogenic H-Leu-NHMec substrate, 1536-well (AID 1445). Also on record: species or system Plasmodium falciparum 3D7, 3D7.

Test [8] concerns the target T5, Sentrin-specific protease 7 (Homo sapiens, UniProt Q9BQF6).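 Further: Luminescence-based dose-response confirmation of ultra-high-throughput screening hits, measuring inhibition of SENP7.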
T5 sequence (Q9BQF6 whole entry): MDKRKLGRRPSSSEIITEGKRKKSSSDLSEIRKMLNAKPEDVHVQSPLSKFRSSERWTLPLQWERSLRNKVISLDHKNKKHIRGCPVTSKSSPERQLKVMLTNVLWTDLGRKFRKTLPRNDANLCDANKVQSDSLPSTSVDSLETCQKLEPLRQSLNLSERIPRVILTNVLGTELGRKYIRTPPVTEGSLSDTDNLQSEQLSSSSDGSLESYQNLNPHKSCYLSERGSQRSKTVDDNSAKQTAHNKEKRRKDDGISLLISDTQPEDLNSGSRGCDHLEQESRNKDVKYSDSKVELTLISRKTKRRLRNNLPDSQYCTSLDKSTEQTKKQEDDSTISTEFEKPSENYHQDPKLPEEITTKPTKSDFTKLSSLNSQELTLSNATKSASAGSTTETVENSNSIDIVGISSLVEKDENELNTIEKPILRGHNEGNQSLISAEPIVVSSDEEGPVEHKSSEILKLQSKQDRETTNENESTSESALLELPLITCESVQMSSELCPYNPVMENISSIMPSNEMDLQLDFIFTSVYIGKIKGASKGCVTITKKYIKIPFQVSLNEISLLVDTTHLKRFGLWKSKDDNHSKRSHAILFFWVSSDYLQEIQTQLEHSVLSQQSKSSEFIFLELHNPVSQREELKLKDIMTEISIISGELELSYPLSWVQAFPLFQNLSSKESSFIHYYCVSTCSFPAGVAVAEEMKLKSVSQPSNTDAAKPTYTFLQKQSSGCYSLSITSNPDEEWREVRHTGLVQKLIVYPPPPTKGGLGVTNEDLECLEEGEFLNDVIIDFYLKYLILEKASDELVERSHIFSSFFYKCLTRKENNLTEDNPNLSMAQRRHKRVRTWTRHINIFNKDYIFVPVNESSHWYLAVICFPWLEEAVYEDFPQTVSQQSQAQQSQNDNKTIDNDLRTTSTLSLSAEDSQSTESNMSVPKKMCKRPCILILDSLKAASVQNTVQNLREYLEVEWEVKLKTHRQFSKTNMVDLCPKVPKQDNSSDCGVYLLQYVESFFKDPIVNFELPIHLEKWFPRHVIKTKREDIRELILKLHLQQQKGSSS
The test is classed as functional.

Test [9] deals with T6, Sentrin-specific protease 8 (Homo sapiens, UniProt Q96LD8).
T6 sequence (Q96LD8 whole entry): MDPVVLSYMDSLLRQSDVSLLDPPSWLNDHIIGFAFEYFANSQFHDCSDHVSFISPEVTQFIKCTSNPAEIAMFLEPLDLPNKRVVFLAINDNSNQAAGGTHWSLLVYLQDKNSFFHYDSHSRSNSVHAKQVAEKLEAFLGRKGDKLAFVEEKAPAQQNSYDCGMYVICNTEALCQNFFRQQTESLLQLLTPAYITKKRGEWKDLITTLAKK
Type of test: functional.

The source made the active and inactive calls. Where only a bound is given, the exact number is not on record here.

Estrogen receptor beta, sequence (Q92731 whole entry): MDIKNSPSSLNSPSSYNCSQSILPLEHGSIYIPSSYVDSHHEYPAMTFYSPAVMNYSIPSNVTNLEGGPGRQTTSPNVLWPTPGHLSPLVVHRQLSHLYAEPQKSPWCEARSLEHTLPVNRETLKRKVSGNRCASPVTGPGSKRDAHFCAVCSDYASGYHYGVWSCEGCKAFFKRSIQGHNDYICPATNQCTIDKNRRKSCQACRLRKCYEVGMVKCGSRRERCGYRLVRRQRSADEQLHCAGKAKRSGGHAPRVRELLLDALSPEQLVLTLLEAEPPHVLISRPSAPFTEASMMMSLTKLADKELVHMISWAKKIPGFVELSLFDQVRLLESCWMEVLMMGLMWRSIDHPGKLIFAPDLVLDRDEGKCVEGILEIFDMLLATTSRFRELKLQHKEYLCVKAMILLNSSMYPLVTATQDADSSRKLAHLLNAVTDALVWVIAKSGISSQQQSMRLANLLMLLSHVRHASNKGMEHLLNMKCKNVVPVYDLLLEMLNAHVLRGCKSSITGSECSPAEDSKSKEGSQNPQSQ
Induced myeloid leukemia cell differentiation protein Mcl-1, sequence (Q07820 whole entry): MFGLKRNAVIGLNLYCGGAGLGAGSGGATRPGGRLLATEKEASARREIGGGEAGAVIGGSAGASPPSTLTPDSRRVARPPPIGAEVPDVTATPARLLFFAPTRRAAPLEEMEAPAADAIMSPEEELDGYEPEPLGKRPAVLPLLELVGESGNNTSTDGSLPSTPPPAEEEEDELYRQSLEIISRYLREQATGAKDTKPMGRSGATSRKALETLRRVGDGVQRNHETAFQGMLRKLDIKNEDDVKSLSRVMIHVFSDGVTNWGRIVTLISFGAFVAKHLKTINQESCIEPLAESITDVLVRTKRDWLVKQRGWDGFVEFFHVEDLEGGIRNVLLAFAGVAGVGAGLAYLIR

On to `Cc1cccc(-n2c(SCc3cc(=O)n4c(C)cccc4n3)nc3nncc-3c2O)c1`, for which, on Estrogen receptor beta, the IC50 is reported as > 50 µM (not active).

On to `O=[N+]([O-])c1cccnc1N1CCN(Cc2ccc3c(c2)OCO3)CC1`, for which the values for the EC50 (at Mu-type opioid receptor; in test [1]) were 92.5 µM (inactive) and 0.00977 µM (active), respectively.

On to `CC(C)(C)c1ccc(-n2ncc3c2CCCC3NC(=O)CCN2CCCC2=O)cc1` (stereo unspecified), for which the IC50 at Protein Wnt-3a was 0.973 µM (active).

`CCOC(=O)N1CCN(Cc2ccc3c(c2)OCO3)CC1`: the EC50 is 92.4 µM (inactive) at Mu-type opioid receptor and 1.19 µM (active) in [1].

As to `CCOC(=O)c1ccc(NC(=O)CSc2nnc(CNc3ccc(OC)cc3)n2C)cc1`, the IC50 at Estrogen receptor is on record as > 50 µM (not active).

Turning to `CCOC(=O)Cc1nn(C)c(=O)c2ccccc12`, the IC50 against Estrogen receptor beta was > 50 µM (not active).

For the compound `Cc1ccc(CN2CCN(c3ncccn3)CC2)o1`, the EC50 at Mu-type opioid receptor is 92.4 µM (inactive); in [1], 4 µM (active).

`O=C(CCc1ccccc1)Nc1ccc(N2CCOCC2)cc1`: the IC50 against Estrogen receptor beta is > 50 µM (not active).

As to `CC(C)(C)c1ccc(NC(=O)N2CCN(c3ccc([N+](=O)[O-])cn3)CC2)cc1`, in test [2], the CC50 was 37.5 µM (active).

Regarding `CCn1c2ccccc2c2cc(NC(=O)CSc3nnc(-c4ccc(OC)cc4)n3N)ccc21`, the IC50 on Estrogen receptor is 12.2 µM (active).

For `CC1CC(C(F)(F)C(F)(F)F)n2nc(C(=O)O)cc2N1` (stereo unspecified), the IC50 on Estrogen receptor is 19.9 µM (active).

For the compound `c1ccc(-c2cn3c([n+]2-c2ccccc2)CCC3)cc1`, the IC50 on Protein Wnt-3a is 5.16 µM (active).

`CC(C)n1c(-c2ccco2)cs/c1=N/c1cccnc1`: on Protein Wnt-3a, the IC50 was 10.5 µM (active).

For `CC(=O)N1CCCCN2[C@H](CO)[C@H](c3ccc(-c4cccc(C)c4)cc3)[C@@H]2C1`, the AC50 was 19.2 µM (active) in test [3], > 52 µM (inactive) in test [4] and 9.64 µM (active) in [5].

On to `COc1cc(/C=N\Nc2nc(-c3ccc(C)cc3)c(NC(C)=O)s2)ccc1O`, for which the IC50 in [6] is on record as 3.02 µM (not active).

As to `O=C(O)COc1ccccc1/C=N/NC(=O)CSc1nnc(SCc2ccc(Cl)cc2)s1`, the IC50 in [7] is 22.5 µM (active); at Caspase-3, 41.1 µM (active); at Aminopeptidase N, 16.6 µM (active); in test [8] it was 15.8 µM (active); in [9] it was > 100 µM (inactive).

As for `COc1ccc2c(c1)c(C)cc[n+]2Cc1ccccc1`, the IC50 on Protein Wnt-3a was 2.07 µM (active).

By EC50 is commonly meant the concentration at which the effect is half-maximal. Broadly, the CC50 is the concentration at which the toxic effect on the cells reaches its halfway point. As usually defined, the AC50 is the midpoint of the concentration-response curve, whichever way the signal moves.
